Assay results taken from patent US9458179B2, “Quinuclidine, 1-azabicyclo[2.2.1]heptane, 1-azabicyclo [3.2.1]octane, and 1-azabicyclo[3.2.2]nonane compounds as alpha-7 nicotinic acetylcholine receptor ligands” (BRISTOL-MYERS SQUIBB COMPANY, priority 2012, dated 2016).

The compounds below were run against T1, α-7 nicotinic ACh receptor ion channel (Rattus norvegicus, UniProt Q05941) (assay: Ca2+-sensitive fluorescence-based FLIPR assay of α7 nicotinic receptor channel function (agonist activity)). Conditions: FLIPR α7-HI (EC50, nM), HEK 293 cells, Ca2+ flux.
T1 construct: expressed in transfected cells
Type: cell-based
Protocol: II) A Ca^2+-Sensitive, Fluorescence-Based Assay α-7 for Nicotinic Acetylcholine Receptor Channel Function in Mammalian Cells (“FLIPR”).
Lead compounds are evaluated for agonist activity at α-7, α3β4, α4αβ2, and α1β1δ1ε sub-types of nicotinic ACh receptor ion channels expressed in mammalian HEK 293 cells. Agonist potency and efficacy values are determined from kinetic fluorescence Ca^2+ influx measurements made using a 384 well FLIPR (Fluorescence Image Plate Reader). […] In this assay, channel expressing HEK cell lines seeded in 384 well assay plates are loaded with a membrane permeant fluorescent Ca^2+ indicator dye, whose 510 nm green emission signal increases in response to elevation of intracellular Ca^2+ concentration. The basal fluorescence from the cells is monitored in real time, followed by the acute addition of test compounds.
Reagents: The acetomethoxy (AM) ester of the Ca^2+ indicator dye Fluo-4 was obtained from InVitrogen, (Carlsbad, Calif.). Acetylcholine and all buffer constituents were purchased from Sigma Chemical Company, St. Louis, Mo. G418 and Minimal Essential Medium were purchased from InVitrogen Life Technologies, Carlsbad, Calif. Fetal bovine serum was purchased from (InVitrogen, Carlsbad, Calif.).
HEK-293 cells were grown in Minimal Essential Medium containing 10% (v/v) fetal bovine serum at 37° C. in a 5% CO2 incubator. HEK-293 cells stably expressing the ion channels were grown in the same medium with the addition of 500 μg/ml G418.
HEK-293 cells expressing the ion channels of interest were plated in 384 well, black-walled, clear-bottomed, poly-D-lysine coated plates at a density of ˜20,000 cells/well in 20 μl of Minimal Essential Medium containing 10% (v/v) fetal bovine serum and incubated for 2 days at 29° C. in a 5% CO2 incubator. Prior to assay, cells were loaded with the Fluo-4 AM ester. […] Dye loading was allowed to proceed for 90 minutes at room temperature at which time the dye loading solution was removed and replaced with 40 μl/well of Hanks buffer. Cells loaded with dye were loaded onto a FLIPR384 (Molecular Devices, Sunnyvale, Calif.). […] Emission was filtered using a 540+/−30 nm bandpass filter. For evaluation of the effects of test compounds using the Ca^2+ flux assay, compounds to be tested were provided in assay ready plates. For nicotinic receptor ion channel expressing cells, the assay was initiated by the addition of 20 μl/well of Hanks buffer containing test compounds. For all assays, data were collected at 1 Hz for 10 seconds (baseline), at which time the compound containing stimulus buffers are added, and further measurements collected at 0.33 Hz for 3 min.
The statistical robustness of the nicotinic receptor Ca^2+ flux assays is determined from blanks and totals wells. […] The raw fluorescence units data files generated on the FLIPR plate reader are automatically exported and processed by in-house data analysis tools. The reduced percent activation data for each concentration of test compound are fit using MathIQ fitting engine (ID Business Solutions Limited, Surrey, UK). Data were analyzed by fitting maximum amplitudes of change in fluorescence, for Ca^2+ flux for a given condition of test compound. […] Test compound efficacy values (Ymax values) are expressed relative to a maximal response to acetylcholine in the total wells.

T1 sequence (Q05941 23-502): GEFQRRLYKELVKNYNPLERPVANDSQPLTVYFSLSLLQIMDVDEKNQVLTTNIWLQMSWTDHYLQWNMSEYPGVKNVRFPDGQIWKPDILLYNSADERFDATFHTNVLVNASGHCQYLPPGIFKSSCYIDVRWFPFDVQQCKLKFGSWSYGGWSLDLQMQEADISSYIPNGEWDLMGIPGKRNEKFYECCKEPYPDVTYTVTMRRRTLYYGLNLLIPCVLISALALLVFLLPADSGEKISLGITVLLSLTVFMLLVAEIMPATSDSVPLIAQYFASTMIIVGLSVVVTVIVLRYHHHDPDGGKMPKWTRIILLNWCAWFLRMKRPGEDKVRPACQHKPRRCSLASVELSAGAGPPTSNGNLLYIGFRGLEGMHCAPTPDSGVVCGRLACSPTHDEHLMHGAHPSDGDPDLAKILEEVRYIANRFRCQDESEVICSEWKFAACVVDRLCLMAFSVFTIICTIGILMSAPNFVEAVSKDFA

Row | Structure (SMILES) | EC50
1 | Clc1ccc2nc(NC3=NCC4(CN5CCC4CC5)N3)sc2c1 (stereo not drawn) [Example 52] | 154 nM
2 | CN1C(Nc2cc3ccccc3cn2)=NCC12CN1CCC2CC1 (stereo not drawn) [Example 15] | 787 nM

Same assay, conditions: FLIPR α7-HI (EC50, nM), HEK 293 cells, Ca2+ flux; Table 1, activity class

Row | Structure (SMILES) | EC50
3 | Clc1ccc2nc(NC3=NCC4(CN5CCC4CC5)N3)sc2n1 (single isomer, unassigned) [Example 28b] | 1000 to 100000 nM
4 | COc1ccc2nc(NC3=NCC4(CN5CCC4CC5)N3C)sc2c1 (stereo not drawn) [Example 2] | 100 to 1000 nM
5 | c1ccc2c(NC3=NCC4(CN5CCC4CC5)N3)ncnc2c1 (stereo not drawn) [Example 23] | 100 to 1000 nM
6 | c1ccc2nc(NC3=NCC4(CN5CCC4CC5)N3)cnc2c1 (stereo not drawn) [Example 36] | 100 to 1000 nM
7 | Clc1ccc(NC2=NCC3(CN4CCC3CC4)N2)nc1 (stereo not drawn) [Example 13] | 1000 to 100000 nM
8 | CCN1C(Nc2nc3ccc(OC)cc3s2)=NCC12CN1CCC2CC1 (stereo not drawn) [Example 3] | 100 to 1000 nM
9 | Clc1ccc2nc(NC3=NCC4(CN5CCC4CC5)N3)sc2c1 (stereo not drawn) [Example 52] | 100 to 1000 nM
10 | Cc1nnc(NC2=NCC3(CN4CCC3CC4)N2C)nc1C (stereo not drawn) [Example 22] | > 1e+06 nM
11 | O=c1ccc2nc(NC3=NCC4(CN5CCC4CC5)N3)sc2[nH]1 (stereo not drawn) [Example 42, 2-(1′,5′-Dihydrospiro[4-azabicyclo[2.2.2]octane-2,4′-imidazol]-2′-ylamino)[1,3]thiazolo[5,4-b]pyridin-5 (4H)-one] | 100 to 1000 nM
12 | Cc1ccc2nc(NC3=NCC4(CN5CCC4CC5)N3)oc2c1 (stereo not drawn) [Example 8b] | 1000 to 100000 nM
13 | Clc1ccc2nc(NC3=NCC4(CN5CCC4CC5)N3)sc2n1 (stereo not drawn) [Example 28] | < 100 nM
14 | Clc1cccc2nc(NC3=NCC4(CN5CCC4CC5)N3)sc12 (stereo not drawn) [Example 53] | 100 to 1000 nM
15 | Cc1ccc2c(NC3=NCC4(CN5CCC4CC5)N3)ncnn12 (stereo not drawn) [Example 64] | 100 to 1000 nM
16 | FC(F)(F)c1ccc2c(NC3=NCC4(CN5CCC4CC5)N3)n[nH]c2c1 (stereo not drawn) [Example 51] | > 1e+06 nM
17 | COc1ccc2sc(NC3=NCC4(CN5CCC4CC5)N3)nc2c1 (stereo not drawn) [Example 54] | 100 to 1000 nM
18 | Clc1ccc2nc(NC3=NCC4(CN5CCC4CC5)N3)sc2n1 (single isomer, unassigned) [Example 28a] | < 100 nM
19 | CN1C(Nc2nc3ccccn3n2)=NCC12CN1CCC2CC1 (stereo not drawn) [Example 35] | 1000 to 100000 nM
20 | c1ccc2oc(NC3=NCC4(CN5CCC4CC5)N3)nc2c1 (stereo not drawn) [Example 59] | < 100 nM
21 | COc1ccc2nc(NC3=NCC4(CN5CCC4CC5)N3)sc2c1 (stereo not drawn) [Example 1, N-(6-Methoxy-1,3-benzothiazol-2-yl)-1′,5′-dihydrospiro[4-azabicyclo[2.2.2]octane-2,4′-imidazol]-2′-amine] | 100 to 1000 nM
22 | CN1C(Nc2ccc(Cl)cn2)=NCC12CN1CCC2CC1 (stereo not drawn) [Example 14] | 1000 to 100000 nM
23 | CN1C(Nc2ccc(Cl)nn2)=NCC12CN1CCC2CC1 (stereo not drawn) [Example 26] | 100 to 1000 nM
24 | CN1C(Nc2nc3ccccc3o2)=NCC12CN1CCC2CC1 (stereo not drawn) [Example 60] | 100 to 1000 nM
25 | Cc1ccc2nc(NC3=NCC4(CN5CCC4CC5)N3)oc2c1 (stereo not drawn) [Example 8, N-(6-Methyl-1,3-benzoxazol-2-yl)-1′,5′-dihydrospiro[4-azabicyclo[2.2.2]octane-2,4′-imidazol]-2′-amine] | < 100 nM
26 | Clc1ccc2oc(NC3=NCC4(CN5CCC4CC5)N3)nc2c1 (stereo not drawn) [Example 57] | 100 to 1000 nM
27 | CN1C(Nc2cc3ccccc3cn2)=NCC12CN1CCC2CC1 (stereo not drawn) [Example 15] | 100 to 1000 nM
28 | CN(C)c1ccc2nc(NC3=NCC4(CN5CCC4CC5)N3)sc2n1 (stereo not drawn) [Example 48, N˜2˜-(1′,5′-Dihydrospiro[4-azabicyclo[2.2.2]octane-2,4′-imidazol]-2′-yl)-N˜5˜,N˜5˜-dimethyl[1,3]thiazolo[5,4-b]pyridine-2,5-diamine] | 1000 to 100000 nM
29 | Brc1ccc2c(NC3=NCC4(CN5CCC4CC5)N3)ncnn12 (stereo not drawn) [Example 66] | 100 to 1000 nM
30 | Brc1ccc2nc(NC3=NCC4(CN5CCC4CC5)N3)sc2n1 (stereo not drawn) [Example 49] | 100 to 1000 nM
31 | c1ccc2sc(NC3=NCC4(CN5CCC4CC5)N3)nc2c1 (single isomer, unassigned) [Example 11a] | < 100 nM
32 | CN1C(Nc2ncnc3ccccc23)=NCC12CN1CCC2CC1 (stereo not drawn) [Example 24] | 1000 to 100000 nM

Same assay, conditions: FLIPR α7-HI (EC50, nM), HEK 293 cells, Ca2+ flux; Table 2, activity class column

Row | Structure (SMILES) | EC50
33 | c1ccc(-c2cnc(NC3=NC4(CO3)CN3CCC4CC3)s2)cc1 (stereo not drawn) [Example 68, N-(5-Phenylthiazol-2-yl)-5H-1′-azaspiro[oxazole-4,3′-bicyclo[2.2.2]octan]-2-amine] | 100 to 1000 nM

Same assay, conditions: FLIPR α7-HI (EC50, nM), HEK 293 cells, Ca2+ flux; Table 3

Row | Structure (SMILES) | EC50
34 | c1ccc2nc(NC3=NCCC4(CN5CCC4CC5)O3)ccc2c1 (stereo not drawn) [Example 86] | 1810 nM
35 | c1ccc2cc(NC3=NCCC4(CN5CCC4CC5)O3)ncc2c1 (stereo not drawn) [Example 76] | 264 nM

Same assay, conditions: FLIPR α7-HI (EC50, nM), HEK 293 cells, Ca2+ flux; Table 3, activity class

Row | Structure (SMILES) | EC50
36 | c1ccc2nc(NC3=NCCC4(CN5CCC4CC5)O3)ccc2c1 (stereo not drawn) [Example 86] | 1000 to 100000 nM
37 | c1ccc2cc(NC3=NCCC4(CN5CCC4CC5)O3)ncc2c1 (stereo not drawn) [Example 76] | 100 to 1000 nM
38 | c1ccc2cc(NC3=NCCC4(CN5CCC4CC5)O3)ncc2c1 (single isomer, unassigned) [Example 76a] | 100 to 1000 nM
39 | Clc1ccc(NC2=NCCC3(CN4CCC3CC4)O2)nc1 (stereo not drawn) [Example 75] | 1000 to 100000 nM
40 | Clc1cnc(NC2=NCCC3(CN4CCC3CC4)O2)nc1 (stereo not drawn) [Example 78] | 1000 to 100000 nM
41 | Cc1nnc(NC2=NCCC3(CN4CCC3CC4)O2)nc1C (stereo not drawn) [Example 81] | 1000 to 100000 nM
42 | c1ccc2nc(NC3=NCCC4(CN5CCC4CC5)O3)ncc2c1 (stereo not drawn) [Example 84] | 100 to 1000 nM
43 | c1ccc2c(NC3=NCCC4(CN5CCC4CC5)O3)ncnc2c1 (stereo not drawn) [Example 82] | 100 to 1000 nM
44 | COc1ncc2nc(NC3=NCCC4(CN5CCC4CC5)O3)sc2n1 (stereo not drawn) [Example 79, N-(5-Methoxythiazolo[5,4-d]pyrimidin-2-yl)-4,5-dihydro-1′-azaspiro[[1,3]oxazine-6,3′-bicyclo[2.2.2]octan]-2-amine] | 1000 to 100000 nM

Same assay, conditions: FLIPR α7-HI (EC50, nM), HEK 293 cells, Ca2+ flux; Table 4, activity class

Row | Structure (SMILES) | EC50
45 | COc1ccc2nc(/N=C3\OC4(CN5CCC4CC5)CN3C)sc2c1 (stereo not drawn) [Example 89, (Z)-6-Methoxy-N-(3-methyl-1′-azaspiro[oxazolidine-5,3′-bicyclo[2.2.2]octane]-2-ylidene)benzo[d]thiazol-2-amine] | > 1e+06 nM
